Laboratory results published in the NIST ThermoML archive (doi:10.1016/j.tca.2015.06.017).

Test: xn = mol fraction of the nth substance listed
Details: Liquid, Vibrating tube method

CCCCCl [1-chlorobutane] + CCCCCCC
Details	mass density [kg/m3]
283.15 K, 50000 kPa, x2 = 0.2013	882.07
283.15 K, 50000 kPa, x2 = 0.3015	857.66
283.15 K, 50000 kPa, x2 = 0.4008	835.21
283.15 K, 50000 kPa, x2 = 0.5026	813.85
283.15 K, 50000 kPa, x2 = 0.6012	794.6
283.15 K, 50000 kPa, x2 = 0.7003	776.55
283.15 K, 50000 kPa, x2 = 0.7995	759.63
283.15 K, 50000 kPa, x2 = 0.9011	743.44
283.15 K, 50000 kPa, x2 = 0.9494	736.1
283.15 K, 60000 kPa, x2 = 0.0508	928.92
283.15 K, 60000 kPa, x2 = 0.0994	915.32
283.15 K, 60000 kPa, x2 = 0.2013	888.42
283.15 K, 60000 kPa, x2 = 0.3015	863.89
283.15 K, 60000 kPa, x2 = 0.4008	841.39
283.15 K, 60000 kPa, x2 = 0.5026	819.91
283.15 K, 60000 kPa, x2 = 0.6012	800.58
283.15 K, 60000 kPa, x2 = 0.7003	782.47
283.15 K, 60000 kPa, x2 = 0.7995	765.51
283.15 K, 60000 kPa, x2 = 0.9011	749.23
283.15 K, 60000 kPa, x2 = 0.9494	741.85
283.15 K, 65000 kPa, x2 = 0.0508	931.98
283.15 K, 65000 kPa, x2 = 0.0994	918.36
283.15 K, 65000 kPa, x2 = 0.2013	891.39
283.15 K, 65000 kPa, x2 = 0.3015	866.87
283.15 K, 65000 kPa, x2 = 0.4008	844.29
283.15 K, 65000 kPa, x2 = 0.5026	822.81
283.15 K, 65000 kPa, x2 = 0.6012	803.45
283.15 K, 65000 kPa, x2 = 0.7003	785.25
283.15 K, 65000 kPa, x2 = 0.7995	768.28
283.15 K, 65000 kPa, x2 = 0.9011	751.95
283.15 K, 65000 kPa, x2 = 0.9494	744.53
293.15 K, 100 kPa, x2 = 0.0508	871.93
293.15 K, 100 kPa, x2 = 0.0994	858.68
293.15 K, 100 kPa, x2 = 0.2013	832.5
293.15 K, 100 kPa, x2 = 0.3015	808.71
293.15 K, 100 kPa, x2 = 0.4008	786.9
293.15 K, 100 kPa, x2 = 0.5026	766.2
293.15 K, 100 kPa, x2 = 0.6012	747.61
293.15 K, 100 kPa, x2 = 0.7003	730.17
293.15 K, 100 kPa, x2 = 0.7995	713.87
293.15 K, 100 kPa, x2 = 0.9011	698.34
293.15 K, 100 kPa, x2 = 0.9494	691.32
293.15 K, 2000 kPa, x2 = 0.0508	873.92
293.15 K, 2000 kPa, x2 = 0.0994	860.68
293.15 K, 2000 kPa, x2 = 0.2013	834.49
293.15 K, 2000 kPa, x2 = 0.3015	810.76
293.15 K, 2000 kPa, x2 = 0.4008	788.97
293.15 K, 2000 kPa, x2 = 0.5026	768.2
293.15 K, 2000 kPa, x2 = 0.6012	749.57
293.15 K, 2000 kPa, x2 = 0.7003	732.18
293.15 K, 2000 kPa, x2 = 0.7995	715.87
293.15 K, 2000 kPa, x2 = 0.9011	700.31
293.15 K, 2000 kPa, x2 = 0.9494	693.28
293.15 K, 5000 kPa, x2 = 0.0508	876.95
293.15 K, 5000 kPa, x2 = 0.0994	863.68
293.15 K, 5000 kPa, x2 = 0.2013	837.52
293.15 K, 5000 kPa, x2 = 0.3015	813.71
293.15 K, 5000 kPa, x2 = 0.4008	791.93
293.15 K, 5000 kPa, x2 = 0.5026	771.16
293.15 K, 5000 kPa, x2 = 0.6012	752.54
293.15 K, 5000 kPa, x2 = 0.7003	735.08
293.15 K, 5000 kPa, x2 = 0.7995	718.74
293.15 K, 5000 kPa, x2 = 0.9011	703.17
293.15 K, 5000 kPa, x2 = 0.9494	696.13
293.15 K, 7000 kPa, x2 = 0.0508	878.92
293.15 K, 7000 kPa, x2 = 0.0994	865.65
293.15 K, 7000 kPa, x2 = 0.2013	839.47
293.15 K, 7000 kPa, x2 = 0.3015	815.63
293.15 K, 7000 kPa, x2 = 0.4008	793.83
293.15 K, 7000 kPa, x2 = 0.5026	773.03
293.15 K, 7000 kPa, x2 = 0.6012	754.35
293.15 K, 7000 kPa, x2 = 0.7003	736.9
293.15 K, 7000 kPa, x2 = 0.7995	720.57
293.15 K, 7000 kPa, x2 = 0.9011	704.95
293.15 K, 7000 kPa, x2 = 0.9494	697.9
293.15 K, 10000 kPa, x2 = 0.0508	881.85
293.15 K, 10000 kPa, x2 = 0.0994	868.56
293.15 K, 10000 kPa, x2 = 0.2013	842.33
293.15 K, 10000 kPa, x2 = 0.3015	818.52
293.15 K, 10000 kPa, x2 = 0.4008	796.66
293.15 K, 10000 kPa, x2 = 0.5026	775.83
293.15 K, 10000 kPa, x2 = 0.6012	757.17
293.15 K, 10000 kPa, x2 = 0.7003	739.62
293.15 K, 10000 kPa, x2 = 0.7995	723.28
293.15 K, 10000 kPa, x2 = 0.9011	707.66
293.15 K, 10000 kPa, x2 = 0.9494	700.58
293.15 K, 20000 kPa, x2 = 0.0508	890.77
293.15 K, 20000 kPa, x2 = 0.0994	877.47
293.15 K, 20000 kPa, x2 = 0.2013	851.18
293.15 K, 20000 kPa, x2 = 0.3015	827.25
293.15 K, 20000 kPa, x2 = 0.4008	805.35
